Experimental data: patent US20150165097A1, “HARDENABLE ANTIMICROBIAL COMPOSITION” (priority 2012, published 2015)
Structures can show the parent of a compound that is named as a salt. Where two headings read alike, the source gives them in different places.

Tests used:
[1] = Solubility / solution appearance of antimicrobial agent in vehicle before addition of PVC
Description: The antimicrobial agent was added to a small vial. For samples containing CPC or OCT, benzyl alcohol (BzOH, available from Mallinkrodt Baker Inc. of Phillipsburg, N.J.), was also added and the mixture was vortexed. Zinc octoate (ZnOct) was then added to the mixture. In a separate jar, a batch mixture containing DINCH, ESO and di-IDPP was prepared; the solution was allowed to roll until a clear/colorless mixture was obtained with no mixing lines. In a separate jar, the appropriate amount of batch mixture was added into the vial containing the antimicrobial agent, solvent, and zinc octoate (ZnOct). The mixture was vortexed and the solution was allowed to roll at a setting of 60 rpm until a determination was made as to whether or not the antimicrobial was dissolving in the solution.
The BKC was dispensed into a 25 mL vial. To this was added the DINCH, TIDP, and ZnOct in that order. The vial was then capped and vortexed for several seconds, and then placed on rollers set at 65 rpm in order to promote the dissolution (if possible) of the BKC. […]
The antimicrobial agents assessed were BKC, BZT, OCT, PCMX, POEtOH, and PHMB. The amount of each antimicrobial agent added was calculated to be equal to the same number of moles of BKC at 1.5 wt % in the plastisol formulation. […]

[2] = Solubility of antimicrobial agent in plasticizer with heat stabilizer package (Example 2), judged visually; conditions: 1.1 wt %; ESO, DDPP and ZnOct present
Description: To the vial containing the plasticizer and antimicrobial, the appropriate amount (see below) of a master batch solution of PVC heat stabilizer was added. The master batch solution of PVC heat stabilizer included: epoxidized soybean oil (ESO), decyl diphenyl Phosphite (DDPP), and zinc octoate (ZnOct). The solution was allowed to roll overnight at ambient temperature at 60 rpm to determine if the antimicrobial was soluble in that system. Samples were evaluated visually for solubility. […] Samples that were clear were judged to have the cationic antimicrobial completely soluble. Those that were hazy were judged to have the antimicrobial partially soluble. Those that were opaque white were substantially insoluble.

[3] = Solubility of antimicrobial agent in plasticizer alone (Example 1); type: physicochemical
Description: The solubility of three different antimicrobial agents: benzalkonium chloride (BKC), octenidine dihydrochloride (OCT), and polyhexamethylene biguanide (PHMB); in various plasticizers was evaluated by the following procedure. The antimicrobial agent was added to a small vial; to this, the plasticizer of interest was added. […] In each solution, 1.5% wt/wt of one antimicrobial agent (BKC, OCT, or PHMB) was combined with 98.5% wt/wt of one of each of the following plasticizers: DINCH, acetyl tributyl citrate, trioctyl trimellitate, dioctyl adipate, or polyester adipate.

Compound | Solubility in MESAMOLL ([1]; Example 8, BZT: at low concentrations of ZnOct, OCT: even with increasing amounts of ZnOct) | Solubility in DINCH, ATC, TOTM, DOA and PEA with heat stabilizing package [2] | Solubility in plasticizer ([3]; 1.5% wt/wt antimicrobial agent in 98.5% wt/wt DINCH, acetyl tributyl citrate, trioctyl trimellitate, dioctyl adipate or polyester adipate, rolled 16 hours at 60 rpm) | Solubility in plasticizer [3] | Solubility of BKC in DINCH, TIDP vehicle ([1]; Example 4, in the absence of ZnOct)
OCCOc1ccccc1 [POEtOH, 2-phenoxyethanol] | well below their solubility limits |  |  |  | 
Polyhexamethylene biguanide [PHMB] |  | not soluble | none of these antimicrobial agents were soluble |  | 
CCCCCCCCN=c1ccn(CCCCCCCCCCn2ccc(=NCCCCCCCC)cc2)cc1 [OCT, Octenidine dihydrochloride] |  | not soluble |  | none of these antimicrobial agents were soluble | 
CCCCCCCCCCCCCC[N+](C)(C)Cc1ccccc1.[Cl-] [BKC, Benzyl dimethyl tetradecyl ammonium chloride] |  | soluble |  | none of these antimicrobial agents were soluble | much less solubility
